Test results from PMC9411599.
Where two headings read alike, the source gives them in different places.

Key:
[1] = photoredox thiol-yne dihydrothiolation of acetylene by dithiol ([1+1] macrocyclisation, forms S-CH2CH2-S bridge); [Ir(d(tBu)(CF3)ppy)2(dtbbpy)]Cl 1 mol%, DIPEA 1.5 equiv, acetylene balloon, blue LEDs 455 nm; settings: the molecule shown is the open-chain precursor, DMF/H2O 50:1, 50.0 mM, 25.0 °C
[2] = the molecule shown is the open-chain precursor

## O=C(OCCOc1ccc(OCCOC(=O)c2ccccc2S)cc1)c1ccccc1S
[1]; 22-membered ring
  ring closure, isolated yield: 0%

## CC(CC(C)OC(=O)CCS)OC(=O)CCS (racemic) [8 (+/-)]
[1]; 15-membered ring, 12.0 h
  ring closure, isolated yield: 33%

## O=C(CCS)OCCCCCCOc1cccc2c1C1(CC2)CCc2cccc(OCCCCCCOC(=O)CCS)c21 (single isomer, unassigned) [51 ((R)-spirobiindane, stereo not in SMILES)]
[1]; 31-membered ring, 12.0 h
  ring closure, isolated yield: 21%

## O=C(CS)OCCCCOC(=O)CS [4]
[1]; 14-membered ring, 12.0 h
  ring closure, isolated yield: 32%

## O=C(CCS)OCCOC(=O)CCS [5]
[1]; 14-membered ring, 12.0 h
  ring closure, isolated yield: 42%

## O=C(CCS)OCCCOC(=O)CCS [6]
[1]; 15-membered ring, 12.0 h
  ring closure, isolated yield: 30%

## CC(COC(=O)CCS)COC(=O)CCS [7]
[1]; 15-membered ring, 12.0 h
  ring closure, isolated yield: 27%

## CC(C)(COC(=O)CCS)COC(=O)CCS [9]
[1]; 15-membered ring, 12.0 h
  ring closure, isolated yield: 32%

## O=C(CCS)OCCCCOC(=O)CCS [10]
[1]; 16-membered ring, 12.0 h
  ring closure, isolated yield: 36%

## O=C(CCS)OCCCCCOC(=O)CCS [11]
[1]; 17-membered ring, 12.0 h
  ring closure, isolated yield: 38%

## O=C(CCS)OCCCCCCOC(=O)CCS [12]
[1]; 18-membered ring, 12.0 h
  ring closure, isolated yield: 23%

## O=C(CCCCCCC(=O)OCCS)OCCS [13]
[1]; 18-membered ring, 12.0 h
  ring closure, isolated yield: 28%

## O=C(CCS)OCCCCCCCOC(=O)CCS [14 (=3)]
[1]; 19-membered ring, 12.0 h
  ring closure, isolated yield: 26%

## O=C(CCS)OCCCCCCCCOC(=O)CCS [15]
[1]; 20-membered ring, 12.0 h
  ring closure, isolated yield: 22%

## O=C(CCS)OCCCCCCCCCOC(=O)CCS [16]
[1]; 21-membered ring, 12.0 h
  ring closure, isolated yield: 24%

## O=C(CCS)OCCCCCCCCCCOC(=O)CCS [17]
[1]; 22-membered ring, 12.0 h
  ring closure, isolated yield: 20%

## O=C(CCS)OCCCCCCCCCCCCOC(=O)CCS [18]
[1]; 24-membered ring, 12.0 h
  ring closure, isolated yield: 25%

## O=C(CCS)OCCCCCCCCCCCCCCOC(=O)CCS [19]
[1]; 26-membered ring, 12.0 h
  ring closure, isolated yield: 21%

## O=C(OCCCCCCS)C(F)(F)C(F)(F)C(=O)OCCCCCCS [20]
[1]; 22-membered ring, 12.0 h
  ring closure, isolated yield: 33%

## O=C(OCCCCCCS)C(F)(F)C(F)(F)C(F)(F)C(F)(F)C(=O)OCCCCCCS [21]
[1]; 24-membered ring, 12.0 h
  ring closure, isolated yield: 31%

## O=C(COCC(=O)OCCCCCCS)OCCCCCCS [22]
[1]; 23-membered ring, 12.0 h
  ring closure, isolated yield: 23%

## O=C(CCS)OCCOCCOC(=O)CCS [23]
[1]; 17-membered ring, 12.0 h
  ring closure, isolated yield: 29%

## O=C(CCS)OCCOCCOCCOC(=O)CCS [24]
[1]; 20-membered ring, 12.0 h
  ring closure, isolated yield: 28%

## O=C(CCS)OCCOCCOCCOCCOC(=O)CCS [25]
[1]; 23-membered ring, 12.0 h
  ring closure, isolated yield: 27%

## O=C(CCS)OCCOCCOCCOCCOCCOCCOCCOCCOC(=O)CCS [26]
[1]; 35-membered ring, 12.0 h
  ring closure, isolated yield: 18%

## O=C(CCS)OCCN(CCOC(=O)CCS)c1ccccc1 [27]
[1]; 17-membered ring, 12.0 h
  ring closure, isolated yield: 38%

## CN(CC(=O)OCCCCCCS)CC(=O)OCCCCCCS [28]
[1]; 23-membered ring, 12.0 h
  ring closure, isolated yield: 24%

## O=C(OCCCCCCS)[C@H]1CC[C@H](C(=O)OCCCCCCS)CC1 [29 (trans)]
[1]; 24-membered ring, 12.0 h
  ring closure, isolated yield: 26%

## O=C(OCCCCCCS)C12CCC(C(=O)OCCCCCCS)(CC1)CC2 [30]
[1]; 24-membered ring, 12.0 h
  ring closure, isolated yield: 28%

## O=C(OCCCCCCS)C12CC3CC(C1)CC(C(=O)OCCCCCCS)(C3)C2 [31]
[1]; 23-membered ring, 12.0 h
  ring closure, isolated yield: 32%

## O=C(CCS)OCCN1CCN(CCOC(=O)CCS)CC1 [32]
[1]; 20-membered ring, 12.0 h
  ring closure, isolated yield: 21%

## O=C(OCCCCCCS)c1ccccc1S [33]
[1]; 14-membered ring, 12.0 h
  ring closure, isolated yield: 25%

## O=C(CCS)OCc1ccccc1COC(=O)CCS [34]
[1]; 16-membered ring, 12.0 h
  ring closure, isolated yield: 39%

## O=C(COc1ccccc1OCC(=O)OCCCCCCS)OCCCCCCS [35]
[1]; 26-membered ring, 12.0 h
  ring closure, isolated yield: 24%

## O=C(CCS)OCc1cccc(COC(=O)CCS)c1 [36]
[1]; 17-membered ring, 12.0 h
  ring closure, isolated yield: 37%

## O=C(CCS)OCc1ccc(COC(=O)CCS)cc1 [37]
[1]; 18-membered ring, 12.0 h
  ring closure, isolated yield: 8%

## O=C(CCS)OCCOc1ccc(OCCOC(=O)CCS)cc1 [38]
[1]; 22-membered ring, 12.0 h
  ring closure, isolated yield: 22%

## O=C(CCS)OCCCOc1ccc2ccc(OCCCOC(=O)CCS)cc2c1 [39]
[1]; 25-membered ring, 12.0 h
  ring closure, isolated yield: 31%

## O=C(CCS)OCc1cccc(COC(=O)CCS)n1 [40]
[1]; 17-membered ring, 12.0 h
  ring closure, isolated yield: 32%

## O=C(CCS)OCc1ccc(COC(=O)CCS)o1 [41]
[1]; 17-membered ring, 12.0 h
  ring closure, isolated yield: 15%

## O=C(OCCCCCCS)[c-]1cccc1.O=C(OCCCCCCS)[c-]1cccc1.[Fe+2] [42 (ferrocene)]
[2]
  ring closure, isolated yield: 8%

## SCCCOc1ccc2ccccc2c1-c1c(OCCCS)ccc2ccccc12 [43 ((R)-BINOL, axial stereo not in SMILES)]
[1]; 16-membered ring, 12.0 h
  ring closure, isolated yield: 40%

## SCCCCCCOc1ccc2ccccc2c1-c1c(OCCCCCCS)ccc2ccccc12 [44 ((R)-BINOL, axial stereo not in SMILES)]
[1]; 22-membered ring, 12.0 h
  ring closure, isolated yield: 35%

## O=C(CCS)OCCCOc1ccc2ccccc2c1-c1c(OCCCOC(=O)CCS)ccc2ccccc12 [45 ((R)-BINOL, axial stereo not in SMILES)]
[1]; 24-membered ring, 12.0 h
  ring closure, isolated yield: 30%

## SCCCCCCCCOc1ccc2ccccc2c1-c1c(OCCCCCCCCS)ccc2ccccc12 [46 ((R)-BINOL, axial stereo not in SMILES)]
[1]; 26-membered ring, 12.0 h
  ring closure, isolated yield: 28%

## O=C(CCS)OCCCCCOc1ccc2ccccc2c1-c1c(OCCCCCOC(=O)CCS)ccc2ccccc12 [47 ((R)-BINOL, axial stereo not in SMILES)]
[1]; 28-membered ring, 12.0 h
  ring closure, isolated yield: 29%

## O=C(CCS)OCCCCCCOc1ccc2ccccc2c1-c1c(OCCCCCCOC(=O)CCS)ccc2ccccc12 [48 ((R)-BINOL, axial stereo not in SMILES)]
[1]; 30-membered ring, 12.0 h
  ring closure, isolated yield: 26%

## O=C(CCS)O[C@H]1CCCC[C@@H]1OC(=O)CCS [49 (1S,2S per text; SI product procedure names 1R,2R)]
[1]; 14-membered ring, 12.0 h
  ring closure, isolated yield: 38%

## C[C@H](S)C(=O)NCC(=O)OCCCCCCS [50 (S per text; SI also names R)]
[1]; 16-membered ring, 12.0 h
  ring closure, isolated yield: 19%

## SCCS [52 substrate (only [2+2])]
[1]; 6-membered ring, 12.0 h
  ring closure, isolated yield: 0%

## OC(CS)C(O)CS (stereo not shown) [53 substrate (only [2+2])]
[1]; 8-membered ring, 12.0 h
  ring closure, isolated yield: 0%

## SCCCS [54 substrate (only [2+2])]
[1]; 7-membered ring, 12.0 h
  ring closure, isolated yield: 0%

## SCCCCS [55 substrate (only [2+2])]
[1]; 8-membered ring, 12.0 h
  ring closure, isolated yield: 0%

## SCCCCCS [56 substrate (only [2+2])]
[1]; 9-membered ring, 12.0 h
  ring closure, isolated yield: 0%

## SCCCCCCS [57 substrate (only [2+2])]
[1]; 10-membered ring, 12.0 h
  ring closure, isolated yield: 0%

## SCCCCCCCCS [58 substrate (only [2+2])]
[1]; 12-membered ring, 12.0 h
  ring closure, isolated yield: 0%

## SCCCCCCCCCS [59 substrate (only [2+2])]
[1]; 13-membered ring, 12.0 h
  ring closure, isolated yield: 0%

## SCCCCCCCCCCS [60 substrate (only [2+2])]
[1]; 14-membered ring, 12.0 h
  ring closure, isolated yield: 0%

## SCCOCCOCCS [62 (dimer 61)]
[1]; 12-membered ring, 12.0 h
  ring closure, isolated yield: 42%

## SCCOCCS [64 (dimer 63)]
[1]; 9-membered ring, 12.0 h
  ring closure, isolated yield: 23%

## SCCSCCCSCCS [66 (dimer 65)]
[1]; 13-membered ring, 12.0 h
  ring closure, isolated yield: 17%
